Test results: patent US20210123016A1, “REGULATORS OF HUMAN PLURIPOTENT STEM CELLS AND USES THEREOF” (Novartis AG, priority 2018, published 2021)
Entries after “also recorded” stand apart in the source; their conditions may differ.

Assays:
[1] = system: iCas9 H1-hESCs; assay: Phalloidin stain of filamentous (F-) ACTIN in fixed cells after dissociation; format: cell-based, human; details: thiazovivin treated cells after dissociation, stain at 3.5 h
Procedure: Immunofluorescence staining of fixed cells was performed as described by Ihry et. al., 2017. Protein lysates were made by vortexing cell pellets in […] (Thermo Scientific 89901) supplemented with Halt protease inhibitor cocktail (Thermo Scientific 78430) and phosphatase inhibitors (Thermo Scientific 1862495). Samples were incubated at 4 C for 10 minutes before centrifugation at 14,000×g for 10 minutes at 4 C. Supernatants were transferred to new tubes and quantified using the BCA protein assay kit (Thermo Scientific 23225) and a SpectraMax Paradigm (Molecular Devices) plate reader. Samples were prepared with NuPAGE LDS sample buffer 4× (Invitrogen NP0008) and NuPAGE sample reducing agent (Invitrogen NP0009) and heated for 10 minutes at 70 C. Chameleon Duo Pre-stained Protein Ladder (LiCOR P/N 928-60000) was loaded alongside 10 ug of protein per sample on a NuPAGE 4-12% Bis-Tris Protein Gels, 1.5 mm, 10-well (Invitrogen NP0335BOX). Gel electrophoresis was performed at 150 V for 1 hr in NuPAGE MOPS SDS Running buffer (20×) (Invitrogen NP0001) using a XCell SureLock Mini-Cell (Thermo Scientific E10002). Transfer was performed using an iBlot 2 dry blotting system (Thermo IB21002 and IB23002) as described by manufacturer. Blots were blocked in TBS blocking buffer (LiCOR 927-50000) for 1 hour at room temperature. […]

[2] = system: iCas9 H1-hESCs; assay: Assaying survival without ROCK inhibitor (single cell dissociation and replating, IncuCyte confluence / time-lapse); format: cell-based, human; details: control and PAWR knockout hPSCs, in the presence of thiazovivin (ROCK inhibitor)
Procedure: Control and mutant iCas9 H1-hESCs were dissociated with accutase for 10 minutes. Flowmi 40-micron cell strainers (BEL-ART H13680-0040) were used to ensure a uniform single cell suspension prior to replating cells. Cells were plated at a density of 10,500 to 21,000 cells/cm^2 plus or minus thiazovivin (ROCK inhibitor). Timelapse images were taken in 1 hr intervals using IncuCyte zoom (Essen Biosciences). The confluence processing analysis tool (IncuCyte Zoom Software) calculated confluency for each sample.

O=C(NCc1ccccc1)c1csc(Nc2ccncn2)n1 [thiazovivin]
cytoskeletal organization (F-ACTIN, phalloidin) [1]: increased surface area, a fanned-out shape with actin stress fibers, and a large circular adhesion belt-like structure | survival after single cell dissociation and replating [2]: survive replating; also recorded: survived as single cells
